# Assays:
# Format in all cases: in vivo, mouse
# [1] = system: C57BL/6J mice; test: T-maze spontaneous alternation test (spatial working memory); settings: old mice and old mice subjected to FMT from young donors; PLX5622 chow versus respective control mice; FIG. 15B
# Method: (§1) In order to acutely deplete the gut microbiota, 15-16 months old SPF males were treated via oral gavage with a mixture of antibiotics (ABX), containing Cefoxitin (Santa Cruz Biotechnology), Gentamicin (Sigma-Aldrich) Metronidazole (Sigma-Aldrich), and Vancomycin (Hikma-pharma), each 10 mg/kg in sterile 1×PBS, for three consecutive days. On the fourth day, the mice were treated with one dose of Clindamycin hydrochloride (33.3 mg/kg) (Sigma-Aldrich). Fecal microbiota transplantations (FMTs) were started 24 h later. To deplete csf1-dependent cells in vivo, including microglia, mice were provided with CSF1R-inhibitor PLX5622 (Plexxicon Inc.) mixed into AIN-76A standard chow at 1200 mg/kg (Research Diets Inc.) ad libitum. Respective controls received AIN-76A standard chow. Mice were injected with 5 mg/kg δ-valerobetaine (MCAT, Germany) 1 h before behavioral testing.
# (§2) For microbiota depletion studies, SPF mice were treated with 1 mg/ml of ampicillin (Auromedics), neomycin sulfate (Fisher), streptomycin (Sigma) and 0.5 mg/ml of vancomycin (Sagent) in the drinking water for 4-5 weeks (Khosravi et al., 2014). These mice were recolonized via FMT, which was achieved by oral gavage of a faecal slurry. Recipient mice had the food removed from the cage for 2 h prior to FMT. The faecal slurry was obtained by pooling faecal pellets from 8-14 donor mice. The pellets were weighed and resuspended by vortexing for 1 min in 1 mL PBS per 300 mg of faeces. After pelleting larger particles by centrifugation at 500×g for 5 min, the supernatant was collected for FMT. Each recipient mouse received 150 μl of faecal slurry by oral gavage. The remaining slurry was stored at −80° C. for 16S rRNA sequencing. Following FMT, the cages of recipient mice were replenished with dirty bedding and fresh faecal pellets from donor mice once and twice a week, respectively. Faecal pellets for 16S rRNA sequencing were collected the day before FMT and at the end of the experiment and were stored at −80° C. for DNA extraction. For re-colonization of ABX treated mice, FMTs from 8 weeks old or 15-16 months old males were undergone. Fresh fecal pellets are collected under a sterile hood and directly thoroughly homogenized in 0.1% L-Cysteine hydrochloride monohydrate in 1×PBS in order to maintain anaerobic microbes. The homogenates were spun down for 1 min, 200 g at 4° C. and the turbid supernatant was used to orally and rectally gavage the recipient mice. The FMT was performed twice 72 h apart.
# (§3) NNN-trimethyl-5-aminovalerate was dissolved in 0.9% NaCl and administered i.p. at a dose of 200 mg/kg in a volume of 10 ml/kg. As control the vehicle NaCl was injected.
# (§4) Mice were tested 40 min after drug- or vehicle injection or 4 weeks after FMT. We first performed the training run for the Novel-object recognition test, followed by the T maze test and then 6 h after the training session mice were tested in the Novel object recognition test. Spatial working memory was tested using the continuous spontaneous alternation task in a T-maze as described previously (Spowart-Manning, L. et al). Briefly, animals were set into the base of a T-maze and allowed to explore a randomly assigned T-maze arm until it returned to the base arm. Subsequently, the blocked arm was opened, and the animal was allowed to explore the complete maze. Once one arm of the T-maze was entered, the other arm was blocked until the animal returned to the base arm. Then, the exit of the base arm was blocked for 5 s and the animal was allowed to explore the maze again. The experiment was stopped after 14 free choice arm entries. Arm entries were scored as alternations if an animal chose the opposing arm compared to the arm visited immediately prior to the scored instance. The Novel Object Recognition (NOR) task was applied to evaluate recognition memory as published previously (Antunes, M. & Biala, G. et al). During the habituation phase, each mouse was allowed to explore two similar objects within a total exploration time of 20 s. […]
# [2] = system: C57BL/6J mice; test: Novel object recognition (NOR) test (recognition memory); settings: old mice and old mice subjected to FMT from young donors; PLX5622 chow versus respective control mice; FIG. 15C-D
# Method: as §1, §2, §3, §4
# [3] = system: microglia; test: Microglia depletion verified by Iba-1 immunohistochemistry; settings: 1200 mg/kg in AIN-76A chow ad libitum; cortex and hippocampus; FIG. 15E-F
# Method: as §1
# Mice were lethally anesthetized with ketamine (100 mg/kg bodyweight) and xylazine (10 mg/kg body weight) followed by perfusion with 1×PBS through the left heart chamber. For histology, the brains were kept overnight in 4% PFA. The brains were then dehydrated in 30% sucrose and embedded in Tissue-Tek O.C.T.™ compound (Sakura Finetek Germany GmbH). […] Fluorescence imaging was performed with BZ-9000 Biorevo microscope (Keyence). Iba-1+DAPI+ cells were quantified using ImageJ (v. 1.53c).
structure (smiles),measurement,setting,value
"COc1ncc(F)cc1CNc1ccc(Cc2c[nH]c3ncc(C)cc23)c(F)n1 [PLX5622, reference compound]",T maze performance of mice lacking microglia,[1],unchanged
same,NOR performance of mice lacking microglia,[2],unchanged
same,microglia in brain tissue (Iba-1 immunohistochemistry),[3],almost complete absence

# — patent US20260276656A1, “GUT MICROBIOTA-RELATED METHODS FOR TREATING DEMENTIA AND AGE-DEPENDENT COGNITIVE DECLINE” (Albert-Ludwigs-Universitat Freiburg, priority 2019, published 2026)
